Reference: US9884067B2, “Androgen receptor down-regulating agents and uses thereof” (UNIVERSITY OF MARYLAND EASTERN SHORE, priority 2013, dated 2018)
Several values for one entry are separate records, joined by “and”; a condition that tells them apart may be missing. Equal entries are not always repeated. Where two headings read alike, the source gives them in different places.

Assays:
human CYP17A1 (CYP171dH) = biological target: T1, human CYP17A1 (CYP171dH) (Homo sapiens, UniProt P05093); test: CYP17 inhibition studies; assay type: biochemical
T1 sequence (P05093 with tags, fused parts or gaps limits assumed): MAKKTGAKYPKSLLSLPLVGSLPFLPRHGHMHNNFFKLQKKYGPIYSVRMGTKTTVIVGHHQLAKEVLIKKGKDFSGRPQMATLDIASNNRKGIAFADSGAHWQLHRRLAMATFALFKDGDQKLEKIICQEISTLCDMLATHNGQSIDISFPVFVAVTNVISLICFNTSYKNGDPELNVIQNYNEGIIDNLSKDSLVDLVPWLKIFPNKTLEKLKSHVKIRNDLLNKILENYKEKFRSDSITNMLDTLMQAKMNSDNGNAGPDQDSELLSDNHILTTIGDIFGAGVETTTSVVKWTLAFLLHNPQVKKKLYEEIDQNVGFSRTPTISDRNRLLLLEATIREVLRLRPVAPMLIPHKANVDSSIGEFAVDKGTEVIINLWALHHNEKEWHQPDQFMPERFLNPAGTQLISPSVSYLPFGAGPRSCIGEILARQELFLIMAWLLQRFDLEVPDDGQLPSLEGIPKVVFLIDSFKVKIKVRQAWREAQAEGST
Description: Some compounds were evaluated for their ability to inhibit CYP17 enzyme. A truncated version of human CYP17A1 (CYP171dH) was expressed in E. coli and then purified to homogeneity.

LNCaP cells = test: MTT colorimetric anti-proliferative assay; assay type: cell-based, human
Description: The cells were treated for 7 days with renewal of test compound and media on day 4. On the 7th day, medium was renewed and MTT (3-(4,5-dimethylthiazol-2-yl)-2,5-diphenyl-2H-tetrazolium bromide) (Sigma, St Louis, Mo., USA) solution (0.5 mg MTT per ml of media) was added to the medium such that the ratio of MTT: medium was 1:10. The cells were incubated with MTT for 2 hours. The medium was then aspirated and DMSO was added to solubilize the violet MTT-formazan product.

AR-3 (also called AR-V7) = biological target: T2, AR-3 (also called AR-V7) (Homo sapiens, UniProt P10275); test: Down-regulation of truncated AR splice variant, western blot in CWR22rv1 cells; assay type: cell-based; settings: CWR22rv1 prostate cancer cell line
T2 construct: endogenous in cells; host or cells: CWR22Rv1
T2 sequence (P10275 1-644 isoform P10275-3): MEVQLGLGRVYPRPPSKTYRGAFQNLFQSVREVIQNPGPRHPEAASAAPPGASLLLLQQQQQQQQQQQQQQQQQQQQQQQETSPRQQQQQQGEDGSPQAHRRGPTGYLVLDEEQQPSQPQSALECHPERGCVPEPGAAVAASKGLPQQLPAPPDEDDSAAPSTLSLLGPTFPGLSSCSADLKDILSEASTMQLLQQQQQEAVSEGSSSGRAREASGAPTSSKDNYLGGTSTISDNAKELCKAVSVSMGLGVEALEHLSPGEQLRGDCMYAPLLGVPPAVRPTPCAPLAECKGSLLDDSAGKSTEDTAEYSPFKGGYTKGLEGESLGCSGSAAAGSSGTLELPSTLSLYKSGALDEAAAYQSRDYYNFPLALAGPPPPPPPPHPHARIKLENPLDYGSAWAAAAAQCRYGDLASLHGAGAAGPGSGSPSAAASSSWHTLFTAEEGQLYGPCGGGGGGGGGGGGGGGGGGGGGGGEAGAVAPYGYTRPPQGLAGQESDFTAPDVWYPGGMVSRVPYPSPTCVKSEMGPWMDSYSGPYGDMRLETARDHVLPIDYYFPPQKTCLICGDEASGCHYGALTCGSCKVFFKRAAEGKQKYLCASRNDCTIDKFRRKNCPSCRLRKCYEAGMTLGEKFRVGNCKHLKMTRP
Description: (§1) Due to the potential implication of AR splice variants lacking the ligand-binding domain (truncated AR) in driving the progression of CRPC, the effects of the compounds on the down-regulation of AR-3 (also called AR-V7) were determined.
(§2) For the Western blot analyses, LNCaP or CWR22v1 prostate cancer cells were cultured. The cells were then treated with the indicated compounds and whole cell lysates were prepared using RIPA lysis buffer (Sigma Aldrich) and protease and phosphatase inhibitors (Sigma Aldrich). All of the antibodies were ordered from cell signaling technology. Protein content was determined using the Bradford Assay (Bio-Rad, Hercules, Calif., USA). Protein was subjected to SDS-PAGE and transferred onto nitrocellulosemembrane. Membranes were then incubated with secondary antibody (cell signaling technology) at room temperature for 1 hour. Bands were visualized by chemiluminescence (Millipore). Protein expression was normalized to β-actin and densitometry was carried out using Image J or ImageQuant 5.0 (Molecular Dynamics, Sunnyvale, Calif., USA).

full-length AR = test: Down-regulation of full-length AR, western blot in CWR22rv1 cells; assay type: cell-based, human; settings: CWR22rv1 prostate cancer cell line
Description: as §1, §2

[1] = Solubility in ethanol or DMSO; assay type: physicochemical
AR = biological target: T3, AR (Homo sapiens, UniProt P10275, T878A); test: AR down-regulation, western blot analysis in LNCaP cells; assay type: cell-based; settings: 24 h, western blot
T3 construct: host or cells: LNCaP
T3 sequence (P10275 1-920 T878A): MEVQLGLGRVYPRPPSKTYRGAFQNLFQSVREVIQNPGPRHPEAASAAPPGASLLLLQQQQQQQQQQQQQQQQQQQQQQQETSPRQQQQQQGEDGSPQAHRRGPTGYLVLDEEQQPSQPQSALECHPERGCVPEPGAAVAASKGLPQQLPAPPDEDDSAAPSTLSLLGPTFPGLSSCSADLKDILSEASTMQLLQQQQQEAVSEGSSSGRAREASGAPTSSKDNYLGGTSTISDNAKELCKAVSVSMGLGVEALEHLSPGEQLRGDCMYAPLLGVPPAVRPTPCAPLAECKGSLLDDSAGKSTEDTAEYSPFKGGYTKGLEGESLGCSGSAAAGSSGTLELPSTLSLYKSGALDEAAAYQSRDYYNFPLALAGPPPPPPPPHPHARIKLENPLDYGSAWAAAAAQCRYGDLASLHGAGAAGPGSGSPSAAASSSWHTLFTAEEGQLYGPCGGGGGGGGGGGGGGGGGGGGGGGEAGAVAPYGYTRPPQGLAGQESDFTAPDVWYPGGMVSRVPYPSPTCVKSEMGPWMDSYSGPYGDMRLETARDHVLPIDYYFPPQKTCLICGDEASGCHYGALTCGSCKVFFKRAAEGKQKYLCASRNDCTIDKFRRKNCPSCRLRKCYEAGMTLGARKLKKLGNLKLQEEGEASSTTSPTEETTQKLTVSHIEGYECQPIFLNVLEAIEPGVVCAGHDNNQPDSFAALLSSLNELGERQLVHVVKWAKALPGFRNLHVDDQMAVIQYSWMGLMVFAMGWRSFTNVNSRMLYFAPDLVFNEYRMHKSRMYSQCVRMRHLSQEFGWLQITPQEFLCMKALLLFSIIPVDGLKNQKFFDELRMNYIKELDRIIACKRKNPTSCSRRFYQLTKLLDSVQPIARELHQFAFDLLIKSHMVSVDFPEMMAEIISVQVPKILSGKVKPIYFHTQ
Description: For the Western blot analyses, LNCaP or CWR22v1 prostate cancer cells were cultured. The cells were then treated with the indicated compounds and whole cell lysates were prepared using RIPA lysis buffer (Sigma Aldrich) and protease and phosphatase inhibitors (Sigma Aldrich). All of the antibodies were ordered from cell signaling technology. Protein content was determined using the Bradford Assay (Bio-Rad, Hercules, Calif., USA). Protein was subjected to SDS-PAGE and transferred onto nitrocellulosemembrane. Membranes were then incubated with secondary antibody (cell signaling technology) at room temperature for 1 hour. Bands were visualized by chemiluminescence (Millipore). Protein expression was normalized to β-actin and densitometry was carried out using Image J or ImageQuant 5.0 (Molecular Dynamics, Sunnyvale, Calif., USA). CWR22Rv1 cells were used for endogenous levels of splice variant AR-3. Protein levels were analyzed with respective antibodies; full length AR and β-actin antibodies were purchased from cell signaling, antibody specific for splice variant AR-3 was obtained from Dr. Yun Qiu, University of Maryland, School of Medicine, Baltimore.

AR in LNCaP cells = biological target: T4, AR in LNCaP cells (Homo sapiens, UniProt P10275, T878A); test: Whole cell competitive binding assay with [3H]R1881; settings: 30 µM
T4 sequence (P10275 1-920 T878A): T3 sequence (P10275 1-920 T878A)
Description: The androgen receptor competitive binding assays were performed with the synthetic androgen methyltrienolone [^3H]R1881. […] To determine the kinetics of [^3H]R1881 binding to the LNCaP AR cells were plated (2-3×10^5 cells/well) in 24 well multiwell dishes in steroid-free medium and allowed to attach. […] Following a 2 hour incubation period at 37° C., cells were washed twice with ice-cold DPBS and solubilized in DPBS containing 0.5% SDS and 20% glycerol. Extracts were removed and cell associated radioactivity counted in a scintillation counter. The data was analyzed, including Kd and Bmax determination, by nonlinear regression using Graphpad Prism software (GraphPad Software, Inc, San Diego, Calif.). When the concentration of [^3H]R1881 required to almost saturate AR in both cell lines was established (5.0 nM), the ability of the test compounds (1 nM-10 μM) to displace [^3H]R1881 (5.0 nM) from the receptors was determined as described above. The IC50 of each compound was determined by nonlinear regression with Graphpad Prism software (GraphPad Software, Inc, San Diego, Calif.).

[2] = each in duplicate, from dose-response curves
[3] = Homo sapiens, LNCaP, 168 h, LNCaP, MTT, 7 days, Table 4, read-out: GI50 of C-3 modified compounds
[4] = Homo sapiens, LNCaP, 168 h, LNCaP, MTT, 7 days, Table 2, read-out: GI50 of C-17 modified compounds

C[C@]12CCC(=NO)C=C1CC[C@@H]1[C@@H]2CC[C@]2(C)C(n3cnc4ccccc43)=CC[C@@H]12 (mixture of isomers) [Compound 36, 3-((EZ)-Hydroximino)-17-(1H-Benzimidazol-1-yl)-androsta-4,16-diene]
IC50 (human CYP17A1 (CYP171dH); [2]): 93.7 to 258 µM and 258 µM | GI50 (LNCaP cells; [3]): 1.91 µM | down-regulation of truncated AR (AR-3) (AR-3 (also called AR-V7)): significant down-regulation | down-regulation of full-length AR (full-length AR): significant down-regulation

C[C@]12CCC(=NOc3ccccc3)C=C1CC[C@@H]1[C@@H]2CC[C@]2(C)C(n3cnc4ccccc43)=CC[C@@H]12 (mixture of isomers) [Compound 37, 3-((EZ)—O-Phenyloxime)-17-(1H-Benzimidazol-1-yl)-androsta-4,16-diene]
solubility in ethanol or DMSO [1]: limited solubility in ethanol or DMSO

C[C@]12CC[C@H](O)CC1=CC[C@@H]1[C@@H]2CC[C@]2(C)C(c3cccnc3)=CC[C@@H]12 [Abiraterone alcohol (3b), abiraterone alcohol, reference compound]
IC50 (human CYP17A1 (CYP171dH); [2]): 0.206 µM | GI50 (LNCaP cells; LNCaP, MTT, 7 days, Table 2, read-out: GI50 of C-17 modified compounds): 1.97 µM

C[C@]12CC[C@H](O)CC1=CC[C@@H]1[C@@H]2CC[C@]2(C)C(n3cnc4ccccc43)=CC[C@@H]12 [Compound 5, 3β-Hydroxy-17-(1H-benzimidazol-1-yl)-androsta-5,16-diene, reference compound]
IC50 (human CYP17A1 (CYP171dH); [2]): 0.752 µM | GI50 (LNCaP cells; [4]): 3.35 µM | down-regulation of full-length AR (full-length AR): significant down-regulation

C[C@]12CC[C@H](O)CC1=CC[C@@H]1[C@@H]2CC[C@]2(C)C(n3ccc4ccccc43)=CC[C@@H]12 [Compound 16, 3β-Hydroxy-17-(1H-indol-1-yl)-androsta-5,16-diene]
melting point: 142 to 145 °C | IC50 (human CYP17A1 (CYP171dH); [2]): 93.7 to 258 µM and 130 µM | GI50 (LNCaP cells; [4]): > 100 µM | AR down-regulation (ARD) activity, in words (AR): up-regulation of AR

COc1ccc(NCC2=C(n3cnc4ccccc43)[C@@]3(C)CC[C@H]4[C@@H](CC=C5C[C@@H](O)CC[C@@]54C)[C@@H]3C2)cc1OC [Compound 31, 3β-Hydroxy-17-(1H-benzimidazol-1-yl)-16-(((3,4-dimethoxyphenyl)amino)methyl)-androsta-5,16-diene]
GI50 (LNCaP cells; Homo sapiens, LNCaP, 168 h, LNCaP cells, MTT, 7 days, Table 3, read-out: GI50 of C-16 modified compounds): > 100 µM | down-regulation of truncated AR (AR-3) (AR-3 (also called AR-V7)): significant down-regulation | AR down-regulation (ARD) activity, in words (AR): significant loss of ARD | down-regulation of full-length AR (full-length AR): significant down-regulation

C[C@]12CC[C@H](OC(=O)c3ccccn3)CC1=CC[C@@H]1[C@@H]2CC[C@]2(C)C(n3cnc4ccccc43)=CC[C@@H]12 [Compound 41, 3β-(Pyridine-2-carboxylate)-17-(1H-benzimidazol-1-yl)-androsta-5,16-diene]
solubility in ethanol or DMSO [1]: limited solubilities in ethanol or DMSO

C[C@]12CC[C@H](OC(=O)c3cccnc3)CC1=CC[C@@H]1[C@@H]2CC[C@]2(C)C(n3cnc4ccccc43)=CC[C@@H]12 [Compound 42, 3β-(Pyridine-3-carboxylate)-17-(1H-benzimidazol-1-yl)-androsta-5,16-diene]
solubility in ethanol or DMSO [1]: limited solubilities in ethanol or DMSO

C[C@]12CC[C@H](OC(=O)c3ccncc3)CC1=CC[C@@H]1[C@@H]2CC[C@]2(C)C(n3cnc4ccccc43)=CC[C@@H]12 [Compound 43, 3β-(Pyridine-4-carboxylate)-17-(1H-benzimidazol-1-yl)-androsta-5,16-diene]
inhibition of [3H]R1881 binding / displacement (AR in LNCaP cells): ~53% | GI50 (LNCaP cells; read-out: GI50 of C-3 modified compounds): 2.57 µM

Cc1nccn1C(=O)O[C@H]1CC[C@@]2(C)C(=CC[C@@H]3[C@@H]2CC[C@]2(C)C(n4cnc5ccccc54)=CC[C@@H]32)C1 [Compound 48, 3β-(2-Methyl-1H-imidazole-1-carboxylate)-17-(1H-benzimidazol-1-yl)-androsta-5,16-diene]
melting point: 186 to 187 °C | IC50 (human CYP17A1 (CYP171dH); [2]): 93.7 to 258 µM and 93.7 µM | GI50 (LNCaP cells; [3]): 5.34 µM | fold decrease in anti-proliferative activity (LNCaP cells; relative to 47): 6 fold

C[C@]12CC[C@H](O)CC1=CC[C@@H]1[C@@H]2CC[C@]2(C)C(n3ccnc3)=CC[C@@H]12 [VN/85-1, 3β-hydroxy-17-(1H-imidazole-1-yl)androsta-5,16-diene, reference compound]
IC50 (human CYP17A1 (CYP171dH)): 0.125 µM
